Experiments:
Assay in all cases: drug sensitivity score (DSS) from 5-dose viability curve (DSS (area-based score, 0 = no response)); higher = more sensitive (stronger viability inhibition); extreme values may be limits of the assay
[1] = tested on: MDCK wild-type - doxycycline; settings: doxycycline: none; 72 h
Method in brief: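 Viability of parental MDCK cells cultured without doxycycline was measured by CellTiter-Glo luminescence and scaled per plate between vehicle and positive controls. The cells had been exposed for 72 h to an oncology library of 528 drugs at five doses (1-10,000 nM). Drug sensitivity scores were calculated from dose-response curve fits in the Breeze pipeline.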

[2] = tested on: MDCK p60AmotL2-inducible + doxycycline (p60AmotL2 expressing); settings: doxycycline: 10 ng/mL; 72 h
Method in brief: (§1)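 Two MDCK lines, parental and doxycycline-inducible, received doxycycline at 10 ng/mL in the medium before being plated at 2000 cells/well onto a pre-spotted 384-well oncology library of 528 drugs at five doses (1-10,000 nM). Incubation lasted 72 h at 37 °C. Viability was read by CellTiter-Glo luminescence, scaled per plate between vehicle and positive controls, and converted to drug sensitivity scores through Breeze curve fitting.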

[3] = tested on: MDCK wild-type + doxycycline; settings: doxycycline: 10 ng/mL; 72 h
Method in brief: as §1

SMILES: CC(C)[C@H]1C(=O)N[C@@H](CCCNC(=N)N)C(=O)NCC(=O)N[C@@H](CC(=O)O)C(=O)N[C@H](Cc2ccccc2)C(=O)N1C [Cilengitide]
- drug sensitivity score [1]: 0.2
- drug sensitivity score [2]: 3.8
- drug sensitivity score [3]: 0

SMILES: N.N.[Cl][Pt][Cl] [Cisplatin]
- drug sensitivity score [1]: 5.7
- drug sensitivity score [2]: 13.5
- drug sensitivity score [3]: 12.2

SMILES: Nc1nc(Cl)nc2c1ncn2[C@H]1C[C@H](O)[C@@H](CO)O1 [Cladribine]
- drug sensitivity score [1]: 1.2
- drug sensitivity score [2]: 2.3
- drug sensitivity score [3]: 2.3

SMILES: Nc1nc(Cl)nc2c1ncn2[C@@H]1O[C@H](CO)[C@@H](O)[C@@H]1F [Clofarabine]
- drug sensitivity score [1]: 12.1
- drug sensitivity score [2]: 13.8
- drug sensitivity score [3]: 12.9

SMILES: CCN(CC)CCOc1ccc(C(=C(Cl)c2ccccc2)c2ccccc2)cc1 [Clomifene]
- drug sensitivity score [1]: 4.4
- drug sensitivity score [2]: 5.3
- drug sensitivity score [3]: 4.7

SMILES: O=C(c1ccc(F)c(F)c1Nc1ccc(I)cc1F)N1CC(O)([C@@H]2CCCCN2)C1 [Cobimetinib]
- drug sensitivity score [1]: 3.9
- drug sensitivity score [2]: 9.8
- drug sensitivity score [3]: 3.4

SMILES: COc1c(OCCCN2CCOCC2)ccc2c1N=C(NC(=O)c1cnc(N)nc1)N1CCN=C21 [Copanlisib]
- drug sensitivity score [1]: 5.8
- drug sensitivity score [2]: 10.9
- drug sensitivity score [3]: 6.2

SMILES: CC1(COc2ccc3c(c2)ncn3-c2ccc3cccc(N4CCC(N)CC4)c3n2)COC1 [Crenolanib]
- drug sensitivity score [1]: 5.4
- drug sensitivity score [2]: 6.5
- drug sensitivity score [3]: 8.1

SMILES: C[C@@H](Oc1cc(-c2cnn(C3CCNCC3)c2)cnc1N)c1c(Cl)ccc(F)c1Cl [Crizotinib]
- drug sensitivity score [1]: 0
- drug sensitivity score [2]: 0
- drug sensitivity score [3]: 0

SMILES: Nc1ccn([C@@H]2O[C@H](CO)[C@@H](O)[C@@H]2O)c(=O)n1 [Cytarabine]
- drug sensitivity score [1]: 1.8
- drug sensitivity score [2]: 4
- drug sensitivity score [3]: 2.3

SMILES: CC(C)(C)c1nc(-c2cccc(NS(=O)(=O)c3c(F)cccc3F)c2F)c(-c2ccnc(N)n2)s1 [Dabrafenib]
- drug sensitivity score [1]: 0
- drug sensitivity score [2]: 0
- drug sensitivity score [3]: 0

SMILES: COc1cc2ncnc(Nc3ccc(F)c(Cl)c3)c2cc1NC(=O)/C=C/CN1CCCCC1 [Dacomitinib]
- drug sensitivity score [1]: 5.3
- drug sensitivity score [2]: 19.3
- drug sensitivity score [3]: 8.4

SMILES: Cc1c2oc3c(C)ccc(C(=O)N[C@@H]4C(=O)N[C@H](C(C)C)C(=O)N5CCC[C@H]5C(=O)N(C)CC(=O)N(C)[C@@H](C(C)C)C(=O)O[C@@H]4C)c3nc-2c(C(=O)N[C@@H]2C(=O)N[C@H](C(C)C)C(=O)N3CCC[C@H]3C(=O)N(C)CC(=O)N(C)[C@@H](C(C)C)C(=O)O[C@@H]2C)c(N)c1=O [Dactinomycin]
- drug sensitivity score [1]: 25.2
- drug sensitivity score [2]: 32.9
- drug sensitivity score [3]: 27.6

SMILES: Cn1c(=O)n(-c2ccc(C(C)(C)C#N)cc2)c2c3cc(-c4cnc5ccccc5c4)ccc3ncc21 [Dactolisib]
- drug sensitivity score [1]: 9.2
- drug sensitivity score [2]: 17.7
- drug sensitivity score [3]: 10.9

SMILES: CO[C@@H](C(=O)N1Cc2[nH]nc(NC(=O)c3ccc(N4CCN(C)CC4)cc3)c2C1)c1ccccc1 [Danusertib]
- drug sensitivity score [1]: 4.4
- drug sensitivity score [2]: 8.4
- drug sensitivity score [3]: 5.6

SMILES: O=C(/C=C/c1cccnc1)NCCCCC1CCN(C(=O)c2ccccc2)CC1 [Daporinad]
- drug sensitivity score [1]: 29.3
- drug sensitivity score [2]: 29.3
- drug sensitivity score [3]: 29.1

SMILES: CCN(CC)CCN(Cc1ccc(-c2ccc(C(F)(F)F)cc2)cc1)C(=O)Cn1c(SCc2ccc(F)cc2)nc(=O)c2c1CCC2 [Darapladib]
- drug sensitivity score [1]: 0
- drug sensitivity score [2]: 0
- drug sensitivity score [3]: 0

SMILES: Cc1nc(Nc2ncc(C(=O)Nc3c(C)cccc3Cl)s2)cc(N2CCN(CCO)CC2)n1 [Dasatinib]
- drug sensitivity score [1]: 4.9
- drug sensitivity score [2]: 13.7
- drug sensitivity score [3]: 1.8

SMILES: COc1cccc2c1C(=O)c1c(O)c3c(c(O)c1C2=O)C[C@@](O)(C(C)=O)C[C@@H]3O[C@H]1C[C@H](N)[C@H](O)[C@H](C)O1 [Daunorubicin]
- drug sensitivity score [1]: 9.5
- drug sensitivity score [2]: 11.6
- drug sensitivity score [3]: 10.3

SMILES: CC[C@@](C)(Nc1ccnc(-c2c[nH]c3ncccc23)n1)C(=O)NCC(F)(F)F [Decernotinib]
- drug sensitivity score [1]: 0
- drug sensitivity score [2]: 0
- drug sensitivity score [3]: 0

SMILES: Nc1ncn([C@H]2C[C@H](O)[C@@H](CO)O2)c(=O)n1 [Decitabine]
- drug sensitivity score [1]: 1.1
- drug sensitivity score [2]: 0.6
- drug sensitivity score [3]: 0

SMILES: CC(=O)N(O)CCCCCNC(=O)CCC(=O)N(O)CCCCCNC(=O)CCC(=O)N(O)CCCCCN [Deferoxamine]
- drug sensitivity score [1]: 3.3
- drug sensitivity score [2]: 5.1
- drug sensitivity score [3]: 3.9

SMILES: C[C@@H]1C[C@H]2[C@@H]3CCC4=CC(=O)C=C[C@]4(C)[C@@]3(F)[C@@H](O)C[C@]2(C)[C@@]1(O)C(=O)CO [Dexamethasone]
- drug sensitivity score [1]: 0
- drug sensitivity score [2]: 0
- drug sensitivity score [3]: 0

SMILES: C[C@H]1O[C@@H](O[C@H]2[C@@H](O)C[C@H](O[C@H]3[C@@H](O)C[C@H](O[C@H]4CC[C@@]5(C)[C@H](CC[C@@H]6[C@@H]5C[C@@H](O)[C@]5(C)[C@@H](C7=CC(=O)OC7)CC[C@]65O)C4)O[C@@H]3C)O[C@@H]2C)C[C@H](O)[C@@H]1O [Digoxin]
- drug sensitivity score [1]: 6
- drug sensitivity score [2]: 5.3
- drug sensitivity score [3]: 11.2

SMILES: CCc1cnn2c(NCc3ccc[n+]([O-])c3)cc(N3CCCC[C@H]3CCO)nc12 [Dinaciclib]
- drug sensitivity score [1]: 18.3
- drug sensitivity score [2]: 16.3
- drug sensitivity score [3]: 17

SMILES: CC(=O)O[C@@]12CO[C@@H]1C[C@H](O)[C@@]1(C)C(=O)[C@H](O)C3=C(C)[C@@H](OC(=O)[C@H](O)[C@@H](NC(=O)OC(C)(C)C)c4ccccc4)C[C@@](O)([C@@H](OC(=O)c4ccccc4)[C@H]21)C3(C)C [Docetaxel]
- drug sensitivity score [1]: 19.3
- drug sensitivity score [2]: 27
- drug sensitivity score [3]: 23.2

SMILES: Cc1ccc(-n2nc(C(C)(C)C)cc2NC(=O)Nc2ccc(OCCN3CCOCC3)c3ccccc23)cc1 [Doramapimod]
- drug sensitivity score [1]: 0
- drug sensitivity score [2]: 0
- drug sensitivity score [3]: 0

SMILES: CN1CCN(c2ccc3nc(-c4c(N)c5c(F)cccc5[nH]c4=O)[nH]c3c2)CC1 [Dovitinib]
- drug sensitivity score [1]: 0
- drug sensitivity score [2]: 0
- drug sensitivity score [3]: 2.5

SMILES: COc1cccc2c1C(=O)c1c(O)c3c(c(O)c1C2=O)C[C@@](O)(C(=O)CO)C[C@@H]3O[C@H]1C[C@H](N)[C@H](O)[C@H](C)O1 [Doxorubicin]
- drug sensitivity score [1]: 3.7
- drug sensitivity score [2]: 9.8
- drug sensitivity score [3]: 8.3

SMILES: C[C@H](Nc1ncnc2nc[nH]c12)c1cc2cccc(Cl)c2c(=O)n1-c1ccccc1 [Duvelisib]
- drug sensitivity score [1]: 0
- drug sensitivity score [2]: 0
- drug sensitivity score [3]: 0

SMILES: Cc1ccc(NS(=O)(=O)c2cccc(C#N)c2)c2[nH]cc(C#N)c12 [E7820]
- drug sensitivity score [1]: 14.5
- drug sensitivity score [2]: 20.4
- drug sensitivity score [3]: 19.9

SMILES: Cc1cc(Nc2cc(N3CCN(C)CC3)nc(/C=C/c3ccccc3)n2)n[nH]1 [ENMD-2076]
- drug sensitivity score [1]: 6.5
- drug sensitivity score [2]: 10.7
- drug sensitivity score [3]: 8.5

SMILES: Cc1cc(C)c(CNC(=O)c2cc(-c3ccc(CN4CCOCC4)cc3)cc3c2cnn3C2CCCC2)c(=O)[nH]1 [EPZ-5687]
- drug sensitivity score [1]: 0
- drug sensitivity score [2]: 0
- drug sensitivity score [3]: 0

SMILES: NC(=O)/C(=C/n1cnc(-c2cc(C(F)(F)F)cc(C(F)(F)F)c2)n1)c1cncnc1 [Eltanexor]
- drug sensitivity score [1]: 19.6
- drug sensitivity score [2]: 19.9
- drug sensitivity score [3]: 21.8

SMILES: CC(C)(O)CNc1nc(Nc2ccnc(C(F)(F)F)c2)nc(-c2cccc(C(F)(F)F)n2)n1 [Enasidenib]
- drug sensitivity score [1]: 0
- drug sensitivity score [2]: 0
- drug sensitivity score [3]: 0

SMILES: COC(=O)N[C@@H](C)CNc1nccc(-c2cn(C(C)C)nc2-c2cc(Cl)cc(NS(C)(=O)=O)c2F)n1 [Encorafenib]
- drug sensitivity score [1]: 0.2
- drug sensitivity score [2]: 0
- drug sensitivity score [3]: 0

SMILES: C[C@@H]1CN(C(=O)c2ccc(NC(=O)c3cc(O[C@H](C)c4c(Cl)ccc(F)c4Cl)c(N)nn3)cc2)C[C@H](C)N1 [Ensartinib]
- drug sensitivity score [1]: 0
- drug sensitivity score [2]: 1.4
- drug sensitivity score [3]: 0

SMILES: Nc1ccccc1NC(=O)c1ccc(CNC(=O)OCc2cccnc2)cc1 [Entinostat]
- drug sensitivity score [1]: 5.4
- drug sensitivity score [2]: 4.4
- drug sensitivity score [3]: 5.5

SMILES: c1cn2cc(-c3ccc4cn[nH]c4c3)nc(Nc3ccc(N4CCOCC4)cc3)c2n1 [Entospletinib]
- drug sensitivity score [1]: 0
- drug sensitivity score [2]: 0
- drug sensitivity score [3]: 0

SMILES: CN1CCN(c2ccc(C(=O)Nc3n[nH]c4ccc(Cc5cc(F)cc(F)c5)cc34)c(NC3CCOCC3)c2)CC1 [Entrectinib]
- drug sensitivity score [1]: 0
- drug sensitivity score [2]: 0.6
- drug sensitivity score [3]: 0

SMILES: CNC(=O)c1ccc(N2C(=S)N(c3ccc(C#N)c(C(F)(F)F)c3)C(=O)C2(C)C)cc1F [Enzalutamide]
- drug sensitivity score [1]: 0
- drug sensitivity score [2]: 0
- drug sensitivity score [3]: 0

SMILES: Cn1cc(C2=C(c3cn(C4CCN(Cc5ccccn5)CC4)c4ccccc34)C(=O)NC2=O)c2ccccc21 [Enzastaurin]
- drug sensitivity score [1]: 0
- drug sensitivity score [2]: 0
- drug sensitivity score [3]: 0

From the supplement of paper PMC11003180
